Literature values in US10689359B2, “Crystals of quinazoline derivative and preparation method therefor” (Xuanzhu Pharma Co., Ltd., priority 2015, dated 2020).

Assays:
Details in all cases: cited from earlier work
[1] = system: HER2/4
[2] = system: erlotinib-resistant H1975 cell line
[3] = biological target: EGFR (Homo sapiens, UniProt P00533)
EGFR, sequence (P00533 25-1210): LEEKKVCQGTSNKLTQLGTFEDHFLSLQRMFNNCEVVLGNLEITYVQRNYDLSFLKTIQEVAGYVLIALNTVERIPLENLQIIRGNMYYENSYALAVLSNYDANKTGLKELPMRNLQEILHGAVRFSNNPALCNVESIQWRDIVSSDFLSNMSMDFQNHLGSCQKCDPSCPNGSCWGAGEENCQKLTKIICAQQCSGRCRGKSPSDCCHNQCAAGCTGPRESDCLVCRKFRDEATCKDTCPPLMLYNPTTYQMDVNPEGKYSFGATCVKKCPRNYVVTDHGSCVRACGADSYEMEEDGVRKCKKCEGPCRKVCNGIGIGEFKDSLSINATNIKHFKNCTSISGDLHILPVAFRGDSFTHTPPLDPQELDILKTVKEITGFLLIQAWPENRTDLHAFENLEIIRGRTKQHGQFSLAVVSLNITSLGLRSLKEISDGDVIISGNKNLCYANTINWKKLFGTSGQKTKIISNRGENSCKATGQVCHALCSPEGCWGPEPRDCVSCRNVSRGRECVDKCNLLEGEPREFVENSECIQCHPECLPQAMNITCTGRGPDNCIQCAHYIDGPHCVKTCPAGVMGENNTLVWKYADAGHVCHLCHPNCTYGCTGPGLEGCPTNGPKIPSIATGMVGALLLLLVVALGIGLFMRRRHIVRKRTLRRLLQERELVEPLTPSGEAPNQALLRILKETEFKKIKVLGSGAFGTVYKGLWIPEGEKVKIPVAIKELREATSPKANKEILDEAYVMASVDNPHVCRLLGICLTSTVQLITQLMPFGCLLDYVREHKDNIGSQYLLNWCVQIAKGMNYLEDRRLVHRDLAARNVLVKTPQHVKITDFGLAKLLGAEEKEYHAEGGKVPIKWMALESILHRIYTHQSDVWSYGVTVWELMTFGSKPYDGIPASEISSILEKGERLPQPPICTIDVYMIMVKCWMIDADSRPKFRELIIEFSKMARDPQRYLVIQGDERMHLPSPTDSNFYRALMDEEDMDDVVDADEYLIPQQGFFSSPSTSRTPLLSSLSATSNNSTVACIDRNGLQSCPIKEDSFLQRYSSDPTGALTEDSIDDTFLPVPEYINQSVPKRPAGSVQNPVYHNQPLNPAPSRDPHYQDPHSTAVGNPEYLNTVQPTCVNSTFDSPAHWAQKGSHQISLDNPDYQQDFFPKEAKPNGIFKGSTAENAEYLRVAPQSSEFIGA

For `C=CC(=O)Nc1cc2c(Nc3ccc(F)c(Cl)c3)ncnc2cc1OCC1CC2(CCN(C)CC2)C1` [Formula (I), N-(4-((3-chloro-4-fluorophenyl)amino)-7-((7-methyl-7-azaspiro[3.5]nonan-2-yl)methoxy)quinazolin-6-yl)acrylamide], the “Inhibition of HER2/4” value [1] is listed as “inhibitory effect”, the “Inhibition of erlotinib-resistant H1975 cell line” value [2] is listed as “significantly inhibitory effect” and the “Inhibition of EGFR” value [3] is listed as “effectively inhibit”.
